According to patent US20230150924A1, “NOVEL COMPOUND HAVING CANCER METASTASIS INHIBITORY ACTIVITY, PREPARATION METHOD THEREFOR, AND PHARMACEUTICAL COMPOSITION FOR INHIBITING CANCER METASTASIS AND INVASION OR TREATING COLORECTAL CANCER, COMPRISING COMPOUND” (CELLGENTEK CO., LTD., priority 2019, published 2023):
Where two headings read alike, the source gives them in different places.

Key:
KAI1 promoter = KAI1 promoter luciferase reporter assay in transfected Caco2 cells; format: cell-based, human; details: Homo sapiens, Caco-2, 16 h, read-out: Relative KAI promoter activity
[1] = tested on: invasion of colorectal cancer cells; experiment: In vivo relative invation (invasion; EV and KITENIN controls, no method described); details: relative to EV (=1); KIT = KITENIN
[2] = 1 μM compound, 16 hours, transfected Caco2 cells, luciferase activity relative to DMSO control (=1)

| SMILES | fold induction at 1 µM (KAI1 promoter; [2]) | In vivo relative invation [1] | fold induction at 1 µM (KAI1 promoter) |
| --- | --- | --- | --- |
| CCCN(CC)Cc1cccc(C(=O)NCC(=O)c2cccc(OC)c2)c1 [Example 294, 3-((ethyl(propyl)amino)methyl)-N-(2-(3-methoxyphenyl)-2-oxoethyl)benzamide] | 1.57 | 1.033 |  |
| COCC(=O)NCC(=O)c1ccccc1 [Example 23, 2-methoxy-N-(2-oxo-2-phenylethyl) acetamide] | 1 | 1.104 |  |
| O=C(CNC(=O)c1ccccc1OC1CCN(C(=O)c2ccc(C(F)(F)F)cc2)CC1)c1ccccc1 [Example 193, N-(2-oxo-2-phenylethyl)-2-((1-(4-(trifluoromethyl)benzoyl)piperidin-4-yl)oxy)benzamide] | 0.82 | 1.214 |  |
| C/C=C/C(=O)NCC(=O)c1ccc(Cl)cc1 [Example 48, (E)-N-(2-(4-chlorophenyl)-2-oxoethyl)but-2-enamide] | 0.85 | 1.19 |  |
| COCC(=O)N1CCC(Oc2ccccc2C(=O)NCC(=O)c2ccccc2)CC1 [Example 178, 2-((1-(2-methoxyacetyl)piperidin-4-yl)oxy)-N-(2-oxo-2-phenylethyl)benzamide] | 0.91 | 1.228 |  |
| O=C(CNC(=O)c1ccc(Cl)cc1)c1ccccc1 [Example 1, 4-chloro-N-(2-oxo-2-phenylethyl)benzamide] |  | 0.9672 | 1.7 |
| O=C(COc1ccccc1C(=O)NCC(=O)c1ccccc1)NCc1cccc(F)c1 [Example 205, 2-(2-((fluorobenzyl)amino)-2-oxoethoxy)-N-(2-oxo-2-phenylethyl)benzamide] | 1.1 | 1.166 |  |
| CCCCN(CCO)Cc1ccc(C(=O)NCC(=O)c2ccccc2)cc1 [Example 268, 4-((butyl(2-hydroxyethyl)amino)methyl)-N-(2-oxo-2-phenylethyl)benzamide] | 1.6 | 1.22 |  |
| C#CN(C)Cc1ccc(C(=O)NCC(=O)c2ccccc2)cc1 [Example 275, 4-((ethynyl(methyl)amino)methyl)-N-(2-oxo-2-phenylethyl)benzamide] | 6.85 | 1.146 |  |
| CCCN(CCC)Cc1ccc(C(=O)NCC(=O)c2ccccc2)cc1 [Example 272, 4-((dipropylamino)methyl)-N-(2-oxo-2-phenylethyl)benzamide] | 1.59 | 1.23 |  |
| CN(C)c1ccc(C(=O)CNC(=O)c2cccc(C(F)(F)F)c2)cc1 [Example 113, N-(2-(4-(dimethylamino)phenyl)-2-oxoethyl)-3-(trifluoromethyl)benzamide] | 1.4 | 1.167 |  |
| O=C(CNC(=O)c1ccccc1OC1CCN(S(=O)(=O)c2ccc(Cl)cc2)CC1)c1ccccc1 [Example 186, 2-((1-((4-chlorophenyl)sulfonyl)piperidin-4-yl)oxy)-N-(2-oxo-2-phenylethyl)benzamide] | 1.06 | 1.145 |  |
| O=C(CNC(=O)C1CCC1)c1ccc(N2CCOCC2)cc1 [Example 144, N-(2-(4-morpholinophenyl)-2-oxoethyl)cyclobutanecarboxamide] | 1.08 | 1.284 |  |
| O=C(COc1ccccc1C(=O)NCC(=O)c1ccccc1)Nc1ccc2c(c1)CCC2 [Example 219, 2-(2-((2,3-dihydro-1H-inden-5-yl)amino)-2-oxoethoxy)-N-(2-oxo-2-phenylethyl)benzamide] | 1.27 | 1.145 |  |
| COc1cccc(C(=O)CNC(=O)c2cccc(CN(C)C3CCCCC3)c2)c1 [Example 280, 3-((cyclohexyl(methyl)amino)methyl)-N-(2-(3-methoxyphenyl)-2-oxoethyl)benzamide] | 1.63 | 1.195 |  |
| COc1ccc(S(=O)(=O)NCC(=O)c2ccc(Cl)cc2)cc1 [Example 71, N-(2-(4-chlorophenyl)-2-oxoethyl)-4-methoxybenzenesulfonamide] | 0.85 | 1.135 |  |
| CN(C)c1ccc(C(=O)CNC(=O)c2cc(Cl)cc(Cl)c2)cc1 [Example 117, 3,5-dichloro-N-(2-(4-(dimethylamino)phenyl)-2-oxoethyl)benzamide] | 1.32 | 1.076 |  |
| COc1cccc(C(=O)CNC(=O)C2CC2)c1 [Example 125, N-(2-(3-methoxyphenyl)-2-oxoethyl)cyclopropanecarboxamide] | 1.48 | 0.8965 |  |
| C=CC(=O)NCC(=O)c1ccc(N(C)C)cc1 [Example 95, N-(2-(4-(dimethylamino)phenyl)-2-oxoethyl)acrylamide] | 1.21 | 1.16 |  |
| CN(C)c1ccc(C(=O)CNC(=O)c2ccccc2C(F)(F)F)cc1 [Example 112, N-(2-(4-(dimethylamino)phenyl)-2-oxoethyl)-2-(trifluoromethyl)benzamide] | 2.82 | 0.9835 |  |
| CS(=O)(=O)N1CCC(Oc2ccccc2C(=O)NCC(=O)c2ccccc2)CC1 [Example 183, 2-((1-(methylsulfonyl)piperidin-4-yl)oxy)-N-(2-oxo-2-phenylethyl)benzamide] | 0.96 | 1.194 |  |
| COc1ccc(C(=O)N2CCC(Oc3ccccc3C(=O)NCC(=O)c3ccccc3)CC2)cc1 [Example 173, 2-((1-(4-methoxybenzoyl)piperidin-4-yl)oxy)-N-(2-oxo-2-phenylethyl)benzamide] | 1.07 | 1.121 |  |
| Cc1cccc(C(=O)NCC(=O)c2ccc(Cl)cc2)c1 [Example 53, N-(2-(4-chlorophenyl)-2-oxoethyl)-3-methylbenzamide] | 2.02 | 0.9411 |  |
